{"source": "patent US8247377B2", "about": "“Non-steroidal glucocorticoid inhibitors and their use in treating inflammation, allergy and auto-immune conditions” (Glaxo Group Limited, priority 2006, dated 2012)", "type_in_all_cases": "cell-based", "key": {"NFκB": {"test_system": "NFκB", "experiment": "NFκB agonist assay in A549 SPAP cells;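 for average maximum asymptote in the NFkB assay: maximum inhibition of the TNFα-induced NFκB-driven signal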", "settings": "Homo sapiens; for Emax: A549, A549 SPAP cells, >85% = full agonist, ≧20% = partial or full agonist, read-out: average maximum asymptote in the NFkB assay; for IC50: A549 SPAP cells, TNFα 3.2 ng/ml, read-out: pIC50 for the NFkB assay (converted)", "method_in_brief": "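A549 cells stably carrying an ELAM/NFκB-driven SPAP reporter were pre-incubated 1 h at 37° C with compound, then stimulated with TNFα (3.2 ng/ml final) for 15 h. SPAP activity read colorimetrically with pNPP at 405 nm after ~1 h; pIC50 estimated from dose-response curves.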"}, "progesterone receptor": {"target": "T1, progesterone receptor (Homo sapiens, UniProt P06401)", "T1 construct": "expressed in transfected cells; host or cells: CV-1 cells transduced with PRb-BacMam and MMTV-BacMam", "T1 sequence (P06401 1-933)": "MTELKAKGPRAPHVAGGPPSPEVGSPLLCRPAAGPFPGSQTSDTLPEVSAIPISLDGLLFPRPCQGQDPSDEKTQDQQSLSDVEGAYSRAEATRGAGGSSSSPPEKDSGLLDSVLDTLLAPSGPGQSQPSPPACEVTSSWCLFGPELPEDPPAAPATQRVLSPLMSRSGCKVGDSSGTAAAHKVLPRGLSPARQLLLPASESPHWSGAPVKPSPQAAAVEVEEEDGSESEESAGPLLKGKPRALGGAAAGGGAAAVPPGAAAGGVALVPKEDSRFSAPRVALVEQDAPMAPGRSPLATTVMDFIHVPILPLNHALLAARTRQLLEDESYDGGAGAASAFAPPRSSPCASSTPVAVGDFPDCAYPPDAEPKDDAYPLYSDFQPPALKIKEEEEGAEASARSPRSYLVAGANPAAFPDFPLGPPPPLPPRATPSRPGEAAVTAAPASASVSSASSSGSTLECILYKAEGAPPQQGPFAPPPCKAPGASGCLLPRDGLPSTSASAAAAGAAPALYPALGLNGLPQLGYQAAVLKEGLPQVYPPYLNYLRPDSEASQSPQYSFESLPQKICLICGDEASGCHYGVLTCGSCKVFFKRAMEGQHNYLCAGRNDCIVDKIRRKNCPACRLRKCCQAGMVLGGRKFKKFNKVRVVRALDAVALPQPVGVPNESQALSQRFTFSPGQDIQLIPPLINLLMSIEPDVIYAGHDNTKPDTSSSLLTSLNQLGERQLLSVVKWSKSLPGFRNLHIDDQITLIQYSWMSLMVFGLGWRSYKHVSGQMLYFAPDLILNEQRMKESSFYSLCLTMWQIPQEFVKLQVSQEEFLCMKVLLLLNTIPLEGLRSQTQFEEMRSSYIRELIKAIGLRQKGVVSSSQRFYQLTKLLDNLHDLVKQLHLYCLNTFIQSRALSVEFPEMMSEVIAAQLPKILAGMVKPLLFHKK", "experiment": "Assay for progesterone receptor activity (CV-1 cells, PRb-BacMam/MMTV-BacMam)", "settings": "CV-1 cells transduced with PRb-BacMam and MMTV-BacMam; read-out: pEC50 progesterone receptor activity (converted)", "method_in_brief": "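CV-1 cells co-transduced with PRb-BacMam and MMTV-BacMam (10% each), seeded onto compounds in DMEM with 10% serum. After 24 h, luminescence was read with Steadylite. pEC50 values were estimated from dose-response curves.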"}, "MMTV promoter": {"test_system": "MMTV promoter", "experiment": "MMTV agonist assay in A549 MMTV cells", "settings": "Homo sapiens, A549, 6 h, >85% = full agonist, >20% and <85% = partial or efficacy selective agonist, read-out: average maximum asymptote in the MMTV agonist assay", "method_in_brief": "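A549 cells stably carrying an MMTV promoter-driven renilla luciferase reporter were exposed to compound for 6 h at 37 °C in DMEM with 10% FCS and 25 mM HEPES. Luminescence read after renilla substrate addition; pEC50 and maximum asymptote estimated from dose-response curves.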"}}, "data": [{"compound": "Nc1c(C(=O)NCC(O)(CNC(=O)c2c(C(F)F)cccc2C(F)F)C(F)(F)F)cnn1-c1ccc(F)cc1", "note": "(single isomer, unassigned) [Example 43 Enantiomer 1, 5-Amino-N-{2-[({[2,6-bis(difluoromethyl)phenyl]carbonyl}amino)methyl]-3,3,3-trifluoro-2-hydroxypropyl}-1-(4-fluorophenyl)-1H-pyrazole-4-carboxamide]", "values": [{"measurement": "Emax", "setting": "NFκB", "value": "≥ 20", "unit": "%"}, {"measurement": "IC50", "setting": "NFκB", "value": "< 1", "unit": "µM"}, {"measurement": "EC50", "setting": "progesterone receptor", "value": "> 1", "unit": "µM"}, {"measurement": "Emax", "setting": "MMTV promoter", "value": "20 to 85", "unit": "%"}]}, {"compound": "Nc1c(C(=O)NCC(O)(CNC(=O)c2c(Cl)cccc2C(F)(F)F)C(F)(F)F)cnn1-c1ccc(F)cc1", "note": "(single isomer, unassigned) [Example 44 Enantiomer 1, 5-Amino-N-{2-[({[2-chloro-6-(trifluoromethyl)phenyl]carbonyl}amino)methyl]-3,3,3-trifluoro-2-hydroxypropyl}-1-(4-fluorophenyl)-1H-pyrazole-4-carboxamide]", "values": [{"measurement": "Emax", "setting": "NFκB", "value": "≥ 20", "unit": "%"}, {"measurement": "IC50", "setting": "NFκB", "value": "< 1", "unit": "µM"}, {"measurement": "EC50", "setting": "progesterone receptor", "value": "> 1", "unit": "µM"}, {"measurement": "Emax", "setting": "MMTV promoter", "value": "20 to 85", "unit": "%"}]}, {"compound": "Nc1c(C(=O)NCC(O)(CNC(=O)c2c(Br)cccc2C(F)(F)F)C(F)(F)F)cnn1-c1ccc(F)cc1", "note": "(single isomer, unassigned) [Example 45 Enantiomer 1, 5-Amino-N-{2-[({[2-bromo-6-(trifluoromethyl)phenyl]carbonyl}amino)methyl]-3,3,3-trifluoro-2-hydroxypropyl}-1-(4-fluorophenyl)-1H-pyrazole-4-carboxamide]", "values": [{"measurement": "Emax", "setting": "NFκB", "value": "≥ 20", "unit": "%"}, {"measurement": "IC50", "setting": "NFκB", "value": "< 1", "unit": "µM"}, {"measurement": "EC50", "setting": "progesterone receptor", "value": "> 1", "unit": "µM"}, {"measurement": "Emax", "setting": "MMTV promoter", "value": "20 to 85", "unit": "%"}]}, {"compound": "Nc1c(C(=O)NCC(O)(CNC(=O)c2c(F)cccc2OC(F)F)C(F)(F)F)cnn1-c1ccc(F)cc1", "note": "(single isomer, unassigned) [Example 48 Enantiomer 1, 5-Amino-N-(2-{[({2-[(difluoromethyl)oxy]-6-fluorophenyl}carbonyl)amino]methyl}-3,3,3-trifluoro-2-hydroxypropyl)-1-(4-fluorophenyl)-1H-pyrazole-4-carboxamide]", "values": [{"measurement": "Emax", "setting": "NFκB", "value": "≥ 20", "unit": "%"}, {"measurement": "IC50", "setting": "NFκB", "value": "< 1", "unit": "µM"}, {"measurement": "EC50", "setting": "progesterone receptor", "value": "> 1", "unit": "µM"}, {"measurement": "Emax", "setting": "MMTV promoter", "value": "20 to 85", "unit": "%"}]}]}
